Entries after “also recorded” stand apart in the source; their conditions may differ. Where a name gives a salt, the structure may show the parent alone.
Tests used:
Format in all cases: physicochemical
Infliximab [1] = experiment: Viscosity of Infliximab formulated in phosphate buffer pH 7.2 with single excipients (mVROC microfluidic viscometer, 20° C.); settings: for viscosity reducing effect on the Infliximab solution: protein concentrations 152 mg/ml and 185 mg/ml, 150 thiamine hydrochloride, thiamine monophosphate
Description: Individual excipient solutions of 150 mM valine, leucine, phenylalanine, ascorbic acid, pyridoxine, proline and thiamine monophosphate were prepared in phosphate buffer pH 7.2. In the same buffer, a 5 mM solution of cyanocobalamin was prepared. Folic acid was prepared in a 13 mM concentration in phosphate puffer pH 7.2. Thiamine pyrophosphate was prepared in a 75 mM concentration in phosphate puffer pH 7.2. The pH was adjusted using HCl or NaOH where necessary.
For absorption spectroscopy, the absorbance at 280 nm was measured using a BioSpectrometer® kinetic (Eppendorf, Hamburg, Germany) with a protein extinction coefficient of A0.1%, 280 nm=1.428.
The mVROC™ Technology (Rheo Sense, San Ramon, Calif., USA) was used for viscosity measurements.
Measurements were performed at 20° C. using a 500 μl syringe and a shear rate of 3000 s-1. A volume of 200 μl was used. All samples were measured as triplicates.
Results of viscosity measurements regarding these experiments can be seen in FIG. 1, FIG. 2 and FIG. 3.

Evolocumab = experiment: Viscosity of Evolocumab formulated in acetate buffer pH 5.0 with single excipients (mVROC microfluidic viscometer, 20° C.); settings: for viscosity of the formulation: Evolocumab 196 mg/ml, 150 mM pyridoxine, thiamine hydrochloride or ascorbic acid, 75 mM Paracetamol; for viscosity of the formulation / viscosity of a Evolocumab formulation: pH 5.0; for viscosity reducing effect compared among the excipients: Evolocumab pH 5.0, 150 mM excipient, data set with concentration by absorption spectroscopy; for viscosity for Evolocumab formulations: pH 5.0, 150 mM excipient
Description: 20 mM Acetate buffer was prepared by mixing 1.2 mg/ml glacial acetic acid with ultrapure water. pH was adjusted to 5.0 using HCl and NaOH if necessary. 0.1 mg/ml Polysorbate 80 was added as stabilizer
Excipient solutions of 150 mM leucine, isoleucine, phenylalanine, ascorbic acid, pyridoxine, proline, lysine, guanidine hydrochloride, thiamine hydrochloride, thiamine monophosphate were prepared in acetate buffer pH 5.0, respectively. Similarly, 25 mM quinine hydrochloride and 5 mM cyanocobalamin were prepared, respectively. Paracetamol and thiamine pyrophosphate were prepared with a concentration of 75 mM. The pH was adjusted using HCl or NaOH, if necessary.
When excipients themselves have a strong absorbance at 280 nm a Bradford-Assay was used.
The mVROC™ Technology (Rheo Sense, San Ramon, Calif. USA) was used for viscosity measurements.
A volume of 200 μl was used. All samples were measured as triplicates.

Infliximab [2] = experiment: Thermal stability (Tm, Tagg) of Infliximab in phosphate buffer pH 7.2 by nano-DSF; settings: Infliximab pH 7.2, change versus control; for aggregation onset temperature Tagg: 150 mM excipient; for thermodynamic transition temperature characterizing heat induced protein unfolding (Tm): 150 mM valine, leucine, ascorbic acid or proline, 5 mM cyanocobalamin
Description: 2.1 Thermal Stability of Infliximab Formulated in Phosphate Buffer pH 7.2 Containing Valine, Leucine, Ascorbic Acid, Cyanocobalamin and Proline as Single Excipients
Buffers and samples were prepared as described under 1.1.
The nano-DSF Technology of a Prometheus system (NanoTemper Technologies GmbH, Munich, Germany) was used to determine melting points and aggregation points.
Fluorescence was measured at 330 and 350 nm as well as the backscattering intensity over a temperature range from 20 to 95° C. with an incline of 1° C./min.
Buffers and samples were prepared as described under 1.4 and 1.5.
Thermal stability measurements were performed as described under 2.1.

[3] = protein concentration 174 mg/ml, 150 mM pyridoxine, ascorbic acid, thiamine hydrochloride or thiamine phosphate, 5 mM cyanocobalamin, 13 mM folic acid, 75 mM thiamine pyrophosphate, versus formulation without excipients
[4] = 5 mM cyanocobalamin, 25 mM quinine hydrochloride
[5] = protein concentration 149 mg/ml, 150 mM pyridoxine, thiamine hydrochloride or thiamine monophosphate, 5 mM cyanocobalamin, 13 mM folic acid, 75 mM thiamine pyrophosphate
[6] = higher protein concentration of 192 mg/ml
[7] = protein concentration 192 mg/ml (first mention, absorption spectroscopy)
[8] = protein concentration 122 mg/ml (absorption spectroscopy), pH 7.2, 150 mM excipient, versus no excipient
[9] = protein concentration 143 mg/ml, pH 7.2, 150 mM excipient, versus no excipient
[10] = protein concentration 180 mg/ml (Bradford assay), 150 mM pyridoxine or thiamine hydrochloride, 5 mM cyanocobalamin, 25 mM quinine hydrochloride, 75 mM paracetamol
[11] = third data set, 75 mM thiamine pyrophosphate, 150 mM thiamine hydrochloride, thiamine monophosphate (thiamine monophosphate only at 180 mg/ml)

Row | Compound | viscosity of the formulation (Infliximab [1]; [3]) | viscosity of the formulation (Evolocumab; [4]) | thermodynamic transition temperature characterizing heat induced protein unfolding (Tm) (Infliximab [2]) | viscosity of the formulation (Infliximab [1]; [5]) | viscosity for Evolocumab formulations (Evolocumab; [6]) | viscosity for Evolocumab formulations (Evolocumab; [7]) | viscosity of a Evolocumab formulation (Evolocumab; [10]) | other results
1 | O=C1O[C@H]([C@@H](O)CO)C(O)=C1O [ascorbic acid] | viscosity reducing effect | reduced viscosity of the formulation | increase | – | – | – | – | aggregation onset temperature Tagg (Infliximab [2]): increase
2 | Nc1nc2ncc(CNc3ccc(C(=O)N[C@@H](CCC(=O)O)C(=O)O)cc3)nc2c(=O)[nH]1 [folic acid] | reduce the viscosity of the formulation | – | – | reduce the viscosity of the formulation | – | – | – | –
3 | N=C(N)N [guanidine hydrochloride, carbamimidoylazanium chloride] | – | – | – | – | reduced viscosity | reduced viscosity | – | viscosity reducing effect compared among the excipients (Evolocumab): most pronounced viscosity reducing effect
4 | CC[C@H](C)[C@H](N)C(=O)O [isoleucine] | – | – | – | – | reduced viscosity | reduced viscosity | – | –
5 | CC(C)C[C@H](N)C(=O)O [leucine] | – | – | increase | – | reduced viscosity | reduced viscosity | – | viscosity of the formulation (Infliximab [1]; [8]): reduced the viscosity of the formulation; viscosity of the formulation (Infliximab [1]; [9]): reduced viscosity of the formulation; viscosity reducing effect compared among the excipients (Evolocumab): most pronounced viscosity reducing effect; aggregation onset temperature Tagg (Infliximab [2]): increase
6 | NCCCC[C@H](N)C(=O)O [lysine] | – | – | – | – | reduced viscosity | reduced viscosity | – | viscosity reducing effect compared among the excipients (Evolocumab): most pronounced viscosity reducing effect
7 | CC(=O)Nc1ccc(O)cc1 [paracetamol, reference compound] | – | reduced the viscosity of the formulation | – | – | – | – | reduced viscosity of the formulation | –
8 | N[C@@H](Cc1ccccc1)C(=O)O [phenylalanine] | – | – | – | – | reduced viscosity | reduced viscosity | – | viscosity of the formulation (Infliximab [1]; [8]): reduced the viscosity of the formulation; viscosity of the formulation (Infliximab [1]; [9]): reduced viscosity of the formulation; also recorded: most efficient viscosity reducing excipient
9 | O=C(O)[C@@H]1CCCN1 [proline] | – | – | increase | – | reduced viscosity | – | – | viscosity of the formulation (Infliximab [1]; [8]): reduced the viscosity of the formulation; viscosity of the formulation (Infliximab [1]; [9]): reduced viscosity of the formulation; aggregation onset temperature Tagg (Infliximab [2]): increase
10 | Cc1ncc(CO)c(CO)c1O [pyridoxine] | viscosity reducing effect | reduced viscosity of the formulation | – | reduce the viscosity of the formulation | – | – | reduced | –
11 | C=C[C@H]1C[N@@]2CC[C@H]1C[C@H]2[C@H](O)c1ccnc2ccc(OC)cc12 [quinine hydrochloride, (R)-[(1S,2S,4S,5R)-5-ethenyl-1-azabicyclo[2.2.2]octan-2-yl](6-methoxyquinolin-4-yl)methanol dihydrate hydrochloride, reference compound] | – | reduced the viscosity of the formulation | – | – | – | – | reduced viscosity of the formulation | –
12 | Cc1ncc(C[n+]2csc(CCO)c2C)c(N)n1 [thiamine hydrochloride] | – | – | – | – | – | – | reduced | viscosity of the formulation (Infliximab [1]; protein concentration 149 mg/ml, 150 mM pyridoxine, thiamine hydrochloride or thiamine monophosphate, 5 mM cyanocobalamin, 13 mM folic acid, 75 mM thiamine pyrophosphate, hydrochloride): reduce the viscosity of the formulation; also recorded: high viscosity reducing potential; viscosity of the formulation (Infliximab [1]; protein concentration 174 mg/ml, 150 mM pyridoxine, ascorbic acid, thiamine hydrochloride or thiamine phosphate, 5 mM cyanocobalamin, 13 mM folic acid, 75 mM thiamine pyrophosphate, versus formulation without excipients, hydrochloride): high viscosity reducing potential; viscosity of the formulation (Infliximab [1]; protein concentration 174 mg/ml, 150 mM pyridoxine, ascorbic acid, thiamine hydrochloride or thiamine phosphate, 5 mM cyanocobalamin, 13 mM folic acid, 75 mM thiamine pyrophosphate, versus formulation without excipients, listed as thiamine hydrochoride, hydrochloride): viscosity reducing effect; viscosity reducing effect on the Infliximab solution (Infliximab [1]; 75 mM thiamine pyrophosphate): strong viscosity reducing effect; viscosity of the formulation (Evolocumab; 5 mM cyanocobalamin, 25 mM quinine hydrochloride, hydrochloride): reduced viscosity of the formulation; also recorded: most efficient viscosity reducing excipient; viscosity of a Evolocumab formulation (Evolocumab; [11]): reduced the viscosity
13 | Cc1ncc(C[n+]2csc(CCOP(=O)(O)O)c2C)c(N)n1 [thiamine monophosphate] | high viscosity reducing potential | – | – | reduce the viscosity of the formulation | – | – | – | viscosity of the formulation (Infliximab [1]; protein concentration 174 mg/ml, 150 mM pyridoxine, ascorbic acid, thiamine hydrochloride or thiamine phosphate, 5 mM cyanocobalamin, 13 mM folic acid, 75 mM thiamine pyrophosphate, versus formulation without excipients, listed as thiamine phosphate): viscosity reducing effect; viscosity reducing effect on the Infliximab solution (Infliximab [1]; 75 mM thiamine pyrophosphate): strong viscosity reducing effect; viscosity of a Evolocumab formulation (Evolocumab; [11]): reduced the viscosity
14 | Cc1ncc(C[n+]2csc(CCO[P@](=O)(O)OP(=O)(O)O)c2C)c(N)n1 [thiamine pyrophosphate] | reduce the viscosity of the formulation | – | – | reduce the viscosity of the formulation | – | – | – | viscosity reducing effect on the Infliximab solution (Infliximab [1]; 75 mM thiamine pyrophosphate): strong viscosity reducing effect; viscosity reducing efficiency (Evolocumab; formulations with 179 mg/ml and 204 mg/ml Evolocumab, 75 mM excipient): highly efficient; viscosity of a Evolocumab formulation (Evolocumab; [11]): reduced the viscosity
15 | CC(C)[C@H](N)C(=O)O [valine] | – | – | increase | – | – | – | – | viscosity of the formulation (Infliximab [1]; [8]): reduced the viscosity of the formulation; aggregation onset temperature Tagg (Infliximab [2]): increase
16 | cyanocobalamin | reduce the viscosity of the formulation | reduced the viscosity of the formulation | increase | reduce the viscosity of the formulation | – | – | reduced viscosity of the formulation | –

Reference: patent US20230279146A1, “VISCOSITY REDUCING EXCIPIENTS AND COMBINATIONS THEREOF FOR HIGHLY CONCENTRATED PROTEIN FORMULATIONS” (Merck Patent GmbH, priority 2020, published 2023)
